Source: ChEMBL document CHEMBL1201862, “PubChem BioAssay data set” (2004)
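All cell lines were grown in 96-well plates and treated with compound for 48 hours. The concentration for 50% growth inhibition is given as GI50.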 Calls of active or inactive are those of the source. Rule as the data show it: active = GI50 up to about 1.1 µM and inactive = higher.

Legend:
Assay in all cases: NCI-60 cell line screen, 48 h
SF-268 = tested on: SF-268
TK-10 = tested on: TK-10
OVCAR-3 = tested on: OVCAR-3
KM12 = tested on: KM12
CCRF-CEM = tested on: CCRF-CEM
SK-MEL-2 = tested on: SK-MEL-2
786-0 = tested on: 786-0
K562 = tested on: K562
SF-295 = tested on: SF-295
SNB-19 = tested on: SNB-19
UO-31 = tested on: UO-31
M14 = tested on: M14
SNB-75 = tested on: SNB-75
U-251 = tested on: U-251
SR = tested on: SR
NCI-H522 = tested on: NCI-H522

Measured: GI50

CCOC(=O)C12CN(C34CC5CC(CC(C5)C3)C4)CC(C(=O)OCC)(C1=O)C(c1ccccc1)OC2c1ccccc1 (configuration not stated)
inactive: SF-268 > 100 µM | TK-10 > 100 µM | OVCAR-3 > 100 µM | KM12 > 100 µM | CCRF-CEM 44.3 µM | SK-MEL-2 > 100 µM | 786-0 > 100 µM | K562 31.4 µM | SF-295 > 100 µM | SNB-19 > 100 µM | UO-31 > 100 µM | M14 > 100 µM | SNB-75 39.7 µM | U-251 > 100 µM

CN(C)CCCN1CCc2c([nH]c3ccccc23)C1c1cccnc1 (configuration not stated)
inactive: TK-10 > 100 µM | OVCAR-3 > 100 µM | KM12 > 100 µM | CCRF-CEM > 100 µM | SK-MEL-2 > 100 µM | 786-0 > 100 µM | K562 > 100 µM | SF-295 > 100 µM | SNB-19 > 100 µM | SR > 100 µM | UO-31 > 100 µM | M14 > 100 µM | SNB-75 > 100 µM | U-251 > 100 µM | NCI-H522 > 100 µM

CCCCN(CCCC)C(=Nc1ccccc1)N(CCCC)CCCC
inactive: SF-268 11.2 µM | TK-10 10.1 µM | OVCAR-3 3.3 µM | KM12 3.7 µM | CCRF-CEM 3.89 µM | SK-MEL-2 6.64 µM | 786-0 3.3 µM | K562 2.09 µM | SF-295 5.38 µM | SNB-19 6.81 µM | UO-31 2.81 µM | SNB-75 16.4 µM | U-251 1.95 µM | NCI-H522 2.17 µM

Cc1c(-c2coc(-c3ccc([N+](=O)[O-])cc3)n2)c(=O)n(-c2ccccc2)n1C
inactive: SF-268 > 100 µM | TK-10 > 100 µM | OVCAR-3 > 100 µM | KM12 > 100 µM | CCRF-CEM > 100 µM | SK-MEL-2 > 100 µM | 786-0 > 100 µM | SF-295 > 100 µM | UO-31 > 100 µM | M14 > 100 µM | SNB-75 > 100 µM | U-251 > 100 µM | NCI-H522 > 100 µM

O=C(c1ccccc1)C1S(=O)(=O)OCCOS1(=O)=O
inactive: SF-268 > 100 µM | TK-10 > 100 µM | OVCAR-3 > 100 µM | KM12 > 100 µM | CCRF-CEM > 100 µM | SK-MEL-2 > 100 µM | 786-0 > 100 µM | K562 > 100 µM | SF-295 > 100 µM | SNB-19 > 100 µM | SR > 100 µM | UO-31 > 100 µM | M14 > 100 µM | SNB-75 > 100 µM | NCI-H522 > 100 µM

Cc1ccc(NC(=O)OCC(COc2ccc(Cl)cc2Cl)OC(=O)Nc2ccc(C)cc2)cc1 (configuration not stated)
inactive: SF-268 > 100 µM | OVCAR-3 80.2 µM | KM12 > 100 µM | SK-MEL-2 > 100 µM | 786-0 64.6 µM | SF-295 > 100 µM | SNB-19 47.6 µM | UO-31 66.2 µM | M14 > 100 µM | SNB-75 27 µM | U-251 34.8 µM

CC(=O)OCCOCBr
inactive: SF-268 > 100 µM | TK-10 > 100 µM | OVCAR-3 > 100 µM | KM12 > 100 µM | CCRF-CEM > 100 µM | SK-MEL-2 > 100 µM | 786-0 > 100 µM | K562 > 100 µM | SF-295 > 100 µM | UO-31 > 100 µM | M14 > 100 µM | SNB-75 > 100 µM | U-251 > 100 µM | NCI-H522 > 100 µM

CCOC(=O)CC(=O)Sc1ccccc1
inactive: SF-268 3.25 µM | TK-10 38.3 µM | OVCAR-3 17.3 µM | KM12 25.6 µM | CCRF-CEM 3.82 µM | SK-MEL-2 25.4 µM | 786-0 19.1 µM | K562 19.4 µM | SF-295 29.6 µM | SNB-19 28.2 µM | SR 14.1 µM | UO-31 14.7 µM | M14 14.2 µM | U-251 12.4 µM | NCI-H522 11.8 µM

COc1ccccc1NC(=O)CC(=O)n1nc(C)c(/N=N/c2ccccc2C(=O)O)c1C
inactive: SF-268 > 100 µM | TK-10 > 100 µM | OVCAR-3 73.1 µM | KM12 > 100 µM | CCRF-CEM > 100 µM | SK-MEL-2 > 100 µM | 786-0 > 100 µM | K562 97.1 µM | SF-295 > 100 µM | SNB-19 > 100 µM | UO-31 48.6 µM | M14 > 100 µM | SNB-75 32.1 µM | U-251 95.7 µM | NCI-H522 43.9 µM

O=C1C2c3[nH]c4ccccc4c3C3CCCCCCC3C2C(=O)N1c1ccccc1 (configuration not stated)
inactive: SF-268 21.6 µM | TK-10 12 µM | OVCAR-3 4.35 µM | KM12 33.6 µM | CCRF-CEM 10.2 µM | 786-0 8.67 µM | K562 4.52 µM | SF-295 2.91 µM | SR 14.9 µM | M14 6.85 µM | SNB-75 2.23 µM | U-251 4.46 µM

CC(=O)OCCC(O[Si](c1ccccc1)(c1ccccc1)C(C)(C)C)C(C)(C)O (configuration not stated)
inactive: SF-268 38.5 µM | TK-10 34.4 µM | OVCAR-3 21 µM | KM12 23.3 µM | CCRF-CEM 24.6 µM | SK-MEL-2 75 µM | 786-0 27.4 µM | K562 31.6 µM | SF-295 21.6 µM | SNB-19 63.1 µM | UO-31 22.1 µM | M14 39 µM | SNB-75 35.6 µM | U-251 36.3 µM | NCI-H522 20 µM

O=C1C2C=CC(n3[nH]c(=O)n(Cc4ccccc4)c3=O)CC2C(=O)N1c1ccc(Br)cc1 (configuration not stated)
inactive: SF-268 > 100 µM | TK-10 > 100 µM | OVCAR-3 > 100 µM | KM12 > 100 µM | CCRF-CEM > 100 µM | SK-MEL-2 > 100 µM | 786-0 > 100 µM | K562 > 100 µM | SF-295 > 100 µM | SNB-19 > 100 µM | SR > 100 µM | UO-31 > 100 µM | M14 > 100 µM | SNB-75 47.1 µM | U-251 > 100 µM | NCI-H522 > 100 µM

CCCCCOCC(O)CO (configuration not stated)
inactive: SF-268 > 100 µM | TK-10 > 100 µM | OVCAR-3 > 100 µM | KM12 > 100 µM | SK-MEL-2 > 100 µM | 786-0 > 100 µM | SF-295 > 100 µM | SNB-19 > 100 µM | U-251 > 100 µM

O=C(CC1(O)C(=O)Nc2ccccc21)c1ccc(Cl)cc1Cl (configuration not stated)
inactive: SF-268 > 100 µM | TK-10 > 100 µM | OVCAR-3 > 100 µM | SK-MEL-2 > 100 µM | 786-0 > 100 µM | K562 > 100 µM | SF-295 > 100 µM | SNB-19 > 100 µM | UO-31 > 100 µM | M14 > 100 µM | SNB-75 > 100 µM | NCI-H522 > 100 µM

COC(=O)c1nc(NC#N)nc(O)c1C
inactive: SF-268 > 78.9 µM | TK-10 > 100 µM | OVCAR-3 > 100 µM | KM12 > 100 µM | CCRF-CEM 78 µM | SK-MEL-2 > 100 µM | 786-0 > 100 µM | K562 34.9 µM | SF-295 > 100 µM | SNB-19 > 67.9 µM | UO-31 > 51.8 µM | M14 > 100 µM | SNB-75 > 53.3 µM | U-251 > 85.7 µM | NCI-H522 > 80.4 µM

O=C(Nc1ccccc1-c1nn(C(=S)Nc2ccccc2)c(=S)n(C(=S)Nc2ccccc2)c1=O)C(F)(F)F
inactive: SF-268 26.5 µM | TK-10 35.3 µM | OVCAR-3 21.6 µM | KM12 17.3 µM | CCRF-CEM 13.3 µM | SK-MEL-2 22.2 µM | 786-0 32.1 µM | K562 18.8 µM | SF-295 31.3 µM | SNB-19 35.4 µM | UO-31 11.9 µM | M14 20.4 µM | SNB-75 31.1 µM | U-251 25.6 µM | NCI-H522 13.6 µM

O=C1C2CCC(C2)C12CC1(c3ccccc3)C(=O)c3ccccc3N1O2 (configuration not stated)
inactive: SF-268 > 100 µM | CCRF-CEM > 100 µM | 786-0 > 100 µM | K562 > 100 µM | SF-295 94.6 µM | SNB-19 > 100 µM | SR 67.5 µM | UO-31 > 100 µM | M14 > 100 µM | SNB-75 > 100 µM | U-251 > 100 µM | NCI-H522 > 100 µM

C[C@@H](NC1CCCC[C@@H]1O)c1ccccc1 (some centres not stated)
inactive: TK-10 > 100 µM | OVCAR-3 > 100 µM | KM12 > 100 µM | CCRF-CEM > 100 µM | SK-MEL-2 > 100 µM | 786-0 > 100 µM | K562 > 100 µM | SF-295 > 100 µM | SNB-19 > 100 µM | UO-31 > 100 µM | M14 > 100 µM | SNB-75 98.4 µM | U-251 > 100 µM

CC/C=C/c1cc2cc[nH]c2c2c1C(C)C[C@@H]2C (some centres not stated)
inactive: TK-10 53.6 µM | OVCAR-3 18.9 µM | KM12 19.8 µM | CCRF-CEM 23.7 µM | 786-0 18.9 µM | K562 25.1 µM | SF-295 24.4 µM | UO-31 24.9 µM | M14 28.1 µM | SNB-75 27.4 µM | U-251 23.4 µM | NCI-H522 18.1 µM

CC(=O)OC(C[C@H](C)[C@@H]1CC[C@]2(C)C3=CCC4C(C)(C)C(=O)CC[C@]4(C)C3CCC12C)C1OC1(C)C (some centres not stated)
inactive: SF-268 21.6 µM | TK-10 19.1 µM | OVCAR-3 88.9 µM | KM12 20 µM | CCRF-CEM 15.9 µM | SK-MEL-2 45.1 µM | 786-0 19.7 µM | K562 7.24 µM | SF-295 22.7 µM | SNB-19 39.6 µM | SR > 10 µM | UO-31 13.2 µM | M14 20.1 µM | U-251 21.9 µM | NCI-H522 12.9 µM
